Inconclusive results and toxic doses are left out.

Consider 20 compounds from PubChem BioAssay AID248 (DTP/NCI, 2004).

For the assay, the system named is L1210 leukemia ip in BDF1 mice, survival T/C. Description: NCI In Vivo Anticancer Drug Screen. Data for tumor model L1210 Leukemia (intraperitoneal) in B6D2F1 (BDF1) mice. The following applies: endpoint: mean survival time, higher = longer survival. Put shortly:
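Each compound was tested against a transplantable tumor grown in mice. The endpoint was survival, with treated animals benchmarked against vehicle controls as a simple ratio.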

The mark [1] stands for this setting: dose: 50.0 mg/kg/injection, schedule: Q01DX009 (ip), vehicle: saline with Tween-80.
The mark [2] stands for this setting: dose: 100.0 mg/kg/injection, schedule: Q01DX009 (ip), vehicle: saline with Tween-80.
[3] abbreviates: dose: 12.5 mg/kg/injection, schedule: Q04DX003 (ip), vehicle: saline with Tween-80.
Setting [4] is: dose: 25.0 mg/kg/injection, schedule: Q04DX003 (ip), vehicle: saline with Tween-80.
Where [5] appears, read: dose: 50.0 mg/kg/injection, schedule: Q04DX003 (ip), vehicle: saline with Tween-80.
Where [6] appears, read: dose: 100.0 mg/kg/injection, schedule: Q01DX001 (ip), vehicle: saline.
Where [7] appears, read: dose: 75.0 mg/kg/injection, schedule: Q01DX001 (ip), vehicle: saline.
Where [8] appears, read: dose: 150.0 mg/kg/injection, schedule: Q01DX001 (ip), vehicle: saline.
[9] abbreviates: dose: 100.0 mg/kg/injection, schedule: Q04DX003 (ip), vehicle: saline with Tween-80.
Where [10] appears, read: dose: 200.0 mg/kg/injection, schedule: Q04DX003 (ip), vehicle: saline with Tween-80.
The mark [11] stands for this setting: dose: 400.0 mg/kg/injection, schedule: Q04DX003 (ip), vehicle: saline with Tween-80.
The mark [12] stands for this setting: dose: 200.0 mg/kg/injection, schedule: Q01DX009 (ip), vehicle: saline with Tween-80.

As for `O=Cc1ccc2ccc3cccc4ccc1c2c34`, the T/C (dose: 100.0 mg/kg/injection, schedule: Q04DX002 (ip), vehicle: saline with Tween-80) is 98 % of control; the T/C (dose: 200.0 mg/kg/injection, schedule: Q04DX002 (ip), vehicle: saline with Tween-80) is 95 % of control; the T/C (dose: 400.0 mg/kg/injection, schedule: Q04DX002 (ip), vehicle: saline with Tween-80) is 95 % of control.

As for `CCSCC1OC(n2cnc3c(N)nc(Cl)nc32)C(O)C1O` (centres undefined), the T/C (dose: 12.5 mg/kg/injection, schedule: Q01DX001 (ip), vehicle: saline with Tween-80) is 100 % of control; the T/C (dose: 25.0 mg/kg/injection, schedule: Q01DX001 (ip), vehicle: saline with Tween-80) was 100 % of control; the T/C (dose: 50.0 mg/kg/injection, schedule: Q01DX001 (ip), vehicle: saline with Tween-80) was 102 % of control.

On to `O=C(CS)NNC(=O)CS`, for which the T/C by setting is: (dose: 100.0 mg/kg/injection, schedule: Q04DX002 (ip), vehicle: Klucel (hydroxypropylcellulose) (HPC)) 93 % of control; (dose: 100.0 mg/kg/injection, schedule: Q04DX003 (ip), vehicle: saline) 104 % of control; (dose: 200.0 mg/kg/injection, schedule: Q04DX002 (ip), vehicle: Klucel (hydroxypropylcellulose) (HPC)) 96 % of control; (dose: 200.0 mg/kg/injection, schedule: Q04DX003 (ip), vehicle: saline) 110 % of control; (dose: 400.0 mg/kg/injection, schedule: Q04DX002 (ip), vehicle: Klucel (hydroxypropylcellulose) (HPC)) 104 % of control; (dose: 400.0 mg/kg/injection, schedule: Q04DX003 (ip), vehicle: saline) 86 % of control.

Take `CC(Cc1ccccc1)N(C)CC1C(=O)C2CCC1C2` (centres undefined): the T/C is 102 % of control (dose: 75.0 mg/kg/injection, schedule: Q01DX001 (ip), vehicle: carboxymethylcellulose (CMC)); 96 % of control (dose: 150.0 mg/kg/injection, schedule: Q01DX001 (ip), vehicle: carboxymethylcellulose (CMC)); 96 % of control (dose: 300.0 mg/kg/injection, schedule: Q01DX001 (ip), vehicle: carboxymethylcellulose (CMC)).

For `Fc1ccc(Nc2c3ccccc3nc3ccccc23)cc1`, the T/C is, setting by setting: (dose: 25.0 mg/kg/injection, schedule: Q01DX009 (ip), vehicle: saline with Tween-80) 92 % of control; under setting [1], 118 % of control; under setting [2], 116 % of control.

On to `CCC[P+](c1ccccc1)(c1ccccc1)c1ccccc1`, for which the T/C runs as follows: (dose: 3.13 mg/kg/injection, schedule: Q01DX009 (ip), vehicle: saline with Tween-80) 123 % of control; (dose: 3.13 mg/kg/injection, schedule: Q04DX003 (ip), vehicle: saline with Tween-80) 102 % of control; (dose: 5.56 mg/kg/injection, schedule: Q01DX009 (ip), vehicle: saline with Tween-80) 118 % of control; (dose: 6.25 mg/kg/injection, schedule: Q01DX009 (ip), vehicle: saline with Tween-80) 118 % of control; (dose: 6.25 mg/kg/injection, schedule: Q04DX003 (ip), vehicle: saline with Tween-80) 96 % of control; (dose: 8.33 mg/kg/injection, schedule: Q01DX009 (ip), vehicle: saline with Tween-80) 121 % of control. Also, the T/C is, setting by setting: (dose: 9.5 mg/kg/injection, schedule: Q01DX001 (ip), vehicle: other) 111 % of control; (dose: 12.5 mg/kg/injection, schedule: Q01DX001 (ip), vehicle: carboxymethylcellulose (CMC)) 101 % of control; under setting [3], 105 % of control; (dose: 12.5 mg/kg/injection, schedule: Q04DX003 (ip), vehicle: saline) 100 % of control; (dose: 18.75 mg/kg/injection, schedule: Q01DX009 (ip), vehicle: saline with Tween-80) 120 % of control; (dose: 19.0 mg/kg/injection, schedule: Q01DX001 (ip), vehicle: other) 102 % of control. The T/C was 104 % of control (dose: 25.0 mg/kg/injection, schedule: Q01DX001 (ip), vehicle: carboxymethylcellulose (CMC)); 105 % of control under setting [4]; 108 % of control (dose: 25.0 mg/kg/injection, schedule: Q04DX003 (ip), vehicle: saline); 107 % of control (dose: 38.0 mg/kg/injection, schedule: Q01DX001 (ip), vehicle: other); 99 % of control (dose: 50.0 mg/kg/injection, schedule: Q01DX001 (ip), vehicle: carboxymethylcellulose (CMC)); 105 % of control under setting [5].

Regarding `CC(C)CCc1c(N)nc(NCCCc2ccccc2)nc1N`, the T/C is 91 % of control (dose: 100.0 mg/kg/injection, schedule: Q01DX001 (ip), vehicle: Klucel (hydroxypropylcellulose) (HPC)) and 103 % of control (dose: 200.0 mg/kg/injection, schedule: Q01DX001 (ip), vehicle: Klucel (hydroxypropylcellulose) (HPC)).

On to `CN(Cc1cnc2nc(N)nc(N)c2n1)c1ccc(C(=O)NC(CCC(=O)O)C(=O)O)c(Cl)c1Cl` (centres undefined), for which the T/C runs as follows: (dose: 12.5 mg/kg/injection, schedule: Q01DX009 (ip), vehicle: sodium bicarbonate) 157 % of control; (dose: 25.0 mg/kg/injection, schedule: Q01DX009 (ip), vehicle: sodium bicarbonate) 157 % of control; (dose: 50.0 mg/kg/injection, schedule: Q01DX009 (ip), vehicle: sodium bicarbonate) 155 % of control.

In the case of `CC(=C(C#N)C#N)c1ccccc1`, the T/C reads like this: under setting [3], 95 % of control; under setting [4], 94 % of control; under setting [5], 89 % of control.

Turning to `COCCOc1nccc(N)n1`, the T/C was 97 % of control (dose: 25.0 mg/kg/injection, schedule: Q01DX001 (ip), vehicle: saline); 97 % of control (dose: 50.0 mg/kg/injection, schedule: Q01DX001 (ip), vehicle: saline); 100 % of control under setting [6].

In the case of `Cc1cc(C)c(C(=O)OC(c2ccccc2)C(C)c2ccccc2)c(C)c1` (centres undefined), the T/C is 94 % of control under setting [7]; 94 % of control under setting [8]; 89 % of control (dose: 300.0 mg/kg/injection, schedule: Q01DX001 (ip), vehicle: saline).

`O=C(NCCCCC(NC(=O)OCc1ccccc1)C(=O)NCCCCCCCCCCNC(=O)C(CCCCNC(=O)OCc1ccccc1)NC(=O)OCc1ccccc1)OCc1ccccc1` (centres undefined): the T/C is 94 % of control (dose: 10.0 mg/kg/injection, schedule: Q01DX012 (ip), vehicle: saline); 96 % of control (dose: 30.0 mg/kg/injection, schedule: Q01DX012 (ip), vehicle: saline); 94 % of control (dose: 100.0 mg/kg/injection, schedule: Q01DX012 (ip), vehicle: saline); 88 % of control (dose: 300.0 mg/kg/injection, schedule: Q01DX012 (ip), vehicle: saline).

`Cc1ccc(N=C(C(=Nc2ccc(C)cc2)c2ccccc2)c2ccccc2)cc1`: the T/C by setting is: under setting [9], 91 % of control; under setting [10], 90 % of control; under setting [11], 88 % of control.

As for `N#C/C(=C1C=C/C(=N/O)C(Br)=C/1)c1ccccc1`, the T/C is 96 % of control under setting [9], 100 % of control under setting [10] and 98 % of control under setting [11].

For `O=C(Nc1cc[n+](Cc2ccc(S(=O)(=O)F)cc2)cc1)c1ccccc1`, the T/C was 96 % of control under setting [9] and 98 % of control under setting [10].

With `c1cc[c]([Sn]([c]2ccccc2)([c]2ccccc2)[n]2ccnc2)cc1`, the T/C runs as follows: (dose: 5.0 mg/kg/injection, schedule: Q01DX001 (ip), vehicle: other) 95 % of control; (dose: 10.0 mg/kg/injection, schedule: Q01DX001 (ip), vehicle: other) 108 % of control.

Regarding `O=[N+]([O-])c1cc2cnn(CO)c2cc1[N+](=O)[O-]`, the T/C under setting [6] is 95 % of control; the T/C (dose: 200.0 mg/kg/injection, schedule: Q01DX001 (ip), vehicle: saline) was 95 % of control; the T/C (dose: 400.0 mg/kg/injection, schedule: Q01DX001 (ip), vehicle: saline) was 100 % of control.

In the case of `CC(C)C(CN)(CCCN1CCOCC1)c1cccc2ccccc12` (centres undefined), the T/C is, setting by setting: under setting [2], 94 % of control; under setting [12], 89 % of control.

For the compound `CC(C)=NNS(=O)(=O)c1ccccc1`, the T/C is, setting by setting: under setting [1], 106 % of control; under setting [2], 108 % of control; under setting [12], 101 % of control.

On to `CCC(C)(C)c1ccc(OCCCCCCN2CCN(c3ccc(C)c(Cl)c3)CC2)cc1`, for which the T/C is 102 % of control under setting [7] and 110 % of control under setting [8].
